For one assay, the target named is T1, Mtb IMPDH (Mycobacterium tuberculosis, UniProt P9WKI7).
T1 construct: made in house
The assay is described as follows: IMPDH biochemical assay (inhibition of Mtb GuaB2). Conditions: for IC50: Mtb IMPDH (GuaB2) enzyme.

The test system of assay [1] is wild-type M. tuberculosis strain H37Rv. The assay is described as follows: microbe, parasite or virus in culture. It is filed as cell-based. Conditions: for fold reduction in whole-cell activity: relative to compound 41.
The mark [2] stands for this setting: Mycobacterium tuberculosis, H37RV, wild-type M. tuberculosis H37Rv, read-out: MIC90 against WT.
The mark [3] stands for this setting: Mycobacterium tuberculosis, H37RV, read-out: MIC90 against WT, wild-type M. tuberculosis H37Rv.

From PMC6990405, “Synthesis and Structure–Activity relationship of 1-(5-isoquinolinesulfonyl)piperazine analogues as inhibitors of Mycobacterium tuberculosis IMPDH” (European Journal of Medicinal Chemistry, 2019) come the findings set out here.

The structures appear in SMILES notation. In brackets after ≈: the same amount, converted by molar mass. Read-outs that look alike come from different tables or passages of the source.

T1 sequence (P9WKI7 whole entry, looked up): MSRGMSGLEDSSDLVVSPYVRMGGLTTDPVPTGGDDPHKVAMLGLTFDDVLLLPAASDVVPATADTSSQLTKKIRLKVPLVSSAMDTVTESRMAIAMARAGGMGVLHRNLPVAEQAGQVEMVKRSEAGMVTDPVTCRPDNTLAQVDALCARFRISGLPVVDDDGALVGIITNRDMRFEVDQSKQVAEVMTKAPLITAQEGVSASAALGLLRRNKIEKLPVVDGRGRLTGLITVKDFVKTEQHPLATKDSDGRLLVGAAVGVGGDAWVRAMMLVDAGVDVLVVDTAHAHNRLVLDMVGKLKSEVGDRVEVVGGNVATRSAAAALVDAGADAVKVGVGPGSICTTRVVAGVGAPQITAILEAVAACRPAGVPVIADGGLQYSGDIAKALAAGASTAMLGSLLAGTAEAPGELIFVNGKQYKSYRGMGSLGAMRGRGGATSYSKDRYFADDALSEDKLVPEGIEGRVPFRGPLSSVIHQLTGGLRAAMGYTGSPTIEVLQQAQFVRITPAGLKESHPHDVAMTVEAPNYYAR

For `O=C(Nc1ccc(Cl)cc1)N1CCN(S(=O)(=O)c2cccc3cnccc23)CC1` [Compound 33, N-(4-chlorophenyl)-4-(isoquinolin-5-ylsulfonyl)piperazine-1-carboxamide], inhibition on Mtb IMPDH was half-maximal at 15 ± 0.5 µM (IC50). In assay [1] (setting [2]), the MIC90 is 250 µM (≈ 108 µg/mL).
On the same counts, the results for `O=C(OCc1ccccc1)N1CCN(S(=O)(=O)c2cccc3cnccc23)CC1` [Compound 49, Benzyl 4-(isoquinolin-5-ylsulfonyl)piperazine-1-carboxylate] are 0.8 ± 0.05 µM and 100 µM (≈ 41.1 µg/mL).
The like results for `CC1CN(S(=O)(=O)c2cccc3cnccc23)CCN1C(=O)Nc1ccc2c(c1)OCO2` (stereo not shown) [Compound 45, N-(benzo[d][1,3]dioxol-5-yl)-4-(isoquinolin-5-ylsulfonyl)-2-methylpiperazine-1-carboxamide] were, in that order, 0.12 ± 0.02 µM and 12.5 µM (≈ 5.68 µg/mL).
On the same counts, the results for `O=C(Nc1cccc(C(F)(F)F)c1)N1CCN(S(=O)(=O)c2cccc3cnccc23)CC1` [Compound 32, 4-(isoquinolin-5-ylsulfonyl)-N-(3-(trifluoromethyl)phenyl)piperazine-1-carboxamide] are 0.08 ± 0.005 µM and 62.5 µM (≈ 29 µg/mL).
On to `CC1CN(S(=O)(=O)c2cccc3cnccc23)CCN1C(=O)C1CCCCC1` (stereo not shown) [Compound 3, Cyclohexyl[4-(isoquinoline-5-sulfonyl)-2-methylpiperazin-1-yl]methanone], for which the IC50 (commonly the concentration needed to halve the response being measured) at Mtb IMPDH was greater than 100 µM. Moreover, the MIC90 in assay [1] (setting [2]) was 100 µM (≈ 40.2 µg/mL).
On the same counts, the results for `Cc1ccc(NC(=O)N2CCN(S(=O)(=O)c3cccc4cnccc34)CC2)cc1Cl` [Compound 38, N-(3-chloro-4-methylphenyl)-4-(isoquinolin-5-ylsulfonyl)piperazine-1-carboxamide] are 1.6 ± 0.2 µM and 100 µM (≈ 44.5 µg/mL).
`COc1cccc(CNC(=O)N2CCN(S(=O)(=O)c3cccc4cnccc34)CC2)c1` [Compound 47, 4-(isoquinolin-5-ylsulfonyl)-N-(3-methoxybenzyl)piperazine-1-carboxamide] returned an IC50 on Mtb IMPDH of 0.035 ± 0.002 µM. Besides, the “fold greater potency than 1 (IMPDH)” value at Mtb IMPDH (relative to compound 1) is reported as roughly 3 fold. Further, in assay [1] (setting [2]), the MIC90 was 3.1 µM (≈ 1.37 µg/mL).
As to `O=S(=O)(c1cccc2cnccc12)N1CCN(C(=S)Nc2ccc3c(c2)OCO3)CC1` [Compound 42, N-(benzo[d][1,3]dioxol-5-yl)-4-(isoquinolin-5-ylsulfonyl)piperazine-1-carbothioamide], half-maximal inhibition against Mtb IMPDH (IC50) was put at 1.1 ± 0.1 µM. Further, in assay [1] (setting [2]), the MIC90 came out at 50 µM (≈ 22.8 µg/mL). Besides, the “fold reduction in whole-cell activity” value in assay [1] was 8 fold.
Regarding `Cc1ccccc1CNC(=O)N1CCN(S(=O)(=O)c2cccc3cnccc23)CC1` [Compound 48, 4-(isoquinolin-5-ylsulfonyl)-N-(2-methylbenzyl)piperazine-1-carboxamide], it took 0.27 ± 0.03 µM to reach half-maximal inhibition against Mtb IMPDH (IC50). Moreover, the MIC90 in assay [1] (setting [2]) came to 3.9 µM (≈ 1.66 µg/mL).
On the same counts, the results for `O=C(NCCNS(=O)(=O)c1cccc2cnccc12)C1CCC1` [Compound 10, N-{2-[(isoquinoline-5-sulfonyl)amino]ethyl}cyclobutanecarboxamide] are 2.7 ± 0.1 µM and 100 µM (≈ 33.3 µg/mL).
Consider `O=C(Nc1ccc(Cl)c([N+](=O)[O-])c1)N1CCN(S(=O)(=O)c2cccc3cnccc23)CC1` [Compound 35, N-(4-chloro-3-nitrophenyl)-4-(isoquinolin-5-ylsulfonyl)piperazine-1-carboxamide], for which it took 5.6 ± 0.2 µM to reach half-maximal inhibition at Mtb IMPDH (IC50). Besides, the MIC90 in assay [1] (setting [2]) amounted to 12.5 µM (≈ 5.95 µg/mL).
Regarding `O=C(Nc1ccc2c(c1)OCO2)N1CCCN(S(=O)(=O)c2cccc3cnccc23)CC1` [Compound 44, 4-(isoquinoline-5-sulfonyl)-N-(2H-1,3-benzodioxol-5-yl)-1,4-diazepane-1-carboxamide], the IC50 against Mtb IMPDH is 0.6 ± 0.02 µM. Also, the “fold reduction in biochemical activity” value at Mtb IMPDH (relative to compound 41) amounted to 8 fold. Besides, in assay [1] (setting [2]), the MIC90 was found to be 12.5 µM (≈ 5.68 µg/mL). Moreover, the “fold reduction in whole-cell activity” value in assay [1] was found to be 2 fold.
For `O=C(NCCNS(=O)(=O)c1cccc2cnccc12)C1CC1` [Compound 9, N-{2-[(isoquinoline-5-sulfonyl)amino]ethyl}cyclopropanecarboxamide], on Mtb IMPDH, it took 6.9 ± 0.2 µM to reach half-maximal inhibition (IC50). For the same compound, the MIC90 in assay [1] (setting [2]) came out at 100 µM (≈ 31.9 µg/mL).
The like results for `Cc1cccc(CC(=O)N2CCN(S(=O)(=O)c3cccc4cnccc34)CC2)c1` [Compound 28, 1-(4-(isoquinolin-5-ylsulfonyl)piperazin-1-yl)-2-(m-tolyl)ethan-1-one] were, in that order, 11.5 ± 0.3 µM and 250 µM (≈ 102 µg/mL).
The like results for `CC1CCCCC1C(=O)N1CCN(S(=O)(=O)c2cccc3cnccc23)CC1` (stereo not shown) [Compound 13, [4-(isoquinoline-5-sulfonyl)piperazin-1-yl](2-methylcyclohexyl)methanone] were, in that order, 0.084 µM and 31.2 µM (≈ 12.5 µg/mL).
`Cc1cc2c(S(=O)(=O)N3CCN(C(=O)C4CCCCC4)CC3)cccc2cn1` [Compound 6, Cyclohexyl[4-(3-methylisoquinoline-5-sulfonyl)piperazin-1-yl]methanone]: the IC50 on Mtb IMPDH was greater than 100 µM. Also, the MIC90 was 100 µM (≈ 40.2 µg/mL) in assay [1] (setting [3]) and greater than 100 µM in assay [1] (wild-type M. tuberculosis H37Rv, read-out: MIC90 against WT).
Regarding `O=C(Cc1ccc(F)cc1)N1CCN(S(=O)(=O)c2cccc3cnccc23)CC1` [Compound 29, 2-(4-fluorophenyl)-1-(4-(isoquinolin-5-ylsulfonyl)piperazin-1-yl)ethan-1-one], inhibition at Mtb IMPDH was half-maximal at 0.68 ± 0.05 µM (IC50). Besides, in assay [1] (setting [2]), the MIC90 is 25 µM (≈ 10.3 µg/mL).
For the compound `COc1cccc(CC(=O)N2CCN(S(=O)(=O)c3cccc4cnccc34)CC2)c1` [Compound 26, 1-[4-(isoquinoline-5-sulfonyl)piperazin-1-yl]-2-(3-methoxyphenyl)ethan-1-one], at Mtb IMPDH, it took 2.6 ± 0.2 µM to reach half-maximal inhibition (IC50). Further, the MIC90 in assay [1] (setting [2]) came to 250 µM (≈ 106 µg/mL).
In the case of `O=C(c1cc([N+](=O)[O-])cc([N+](=O)[O-])c1)N1CCN(S(=O)(=O)c2cccc3cnccc23)CC1` [Compound 19, [4-(isoquinoline-5-sulfonyl)piperazin-1-yl](3,5-dinitrophenyl)methanone], half-maximal inhibition at Mtb IMPDH (IC50) was put at 1.4 ± 0.01 µM. The MIC90 in assay [1] (setting [2]) was found to be 12.5 µM (≈ 5.89 µg/mL).
The like results for `O=C(C1CCCCC1)N1CCN(S(=O)(=O)c2cccc3ccccc23)CC1` [Compound 7, Cyclohexyl[4-(naphthalene-1-sulfonyl)piperazin-1-yl]methanone] were, in that order, 3 ± 0.1 µM and greater than 100 µM.
With `N#Cc1cccc(C(=O)N2CCN(S(=O)(=O)c3cccc4cnccc34)CC2)c1` [Compound 16, 3-[4-(isoquinoline-5-sulfonyl)piperazine-1-carbonyl]benzonitrile], it took 8.6 ± 0.5 µM to reach half-maximal inhibition against Mtb IMPDH (IC50). Also, in assay [1] (setting [2]), the MIC90 stood at 25 µM (≈ 10.2 µg/mL).
In the case of `O=C(CC1CCC2(CC1)OCCO2)N1CCN(S(=O)(=O)c2cccc3cnccc23)CC1` [Compound 23, 2-(1,4-dioxaspiro[4.5]decan-8-yl)-1-[4-(isoquinoline-5-sulfonyl)piperazin-1-yl]ethan-1-one], the IC50 at Mtb IMPDH came to 3.3 ± 0.2 µM. The MIC90 in assay [1] (setting [2]) is 250 µM (≈ 115 µg/mL).
The like results for `CC1(C(=O)N2CCN(S(=O)(=O)c3cccc4cnccc34)CC2)CCCCC1` [Compound 12, [4-(isoquinoline-5-sulfonyl)piperazin-1-yl](1-methylcyclohexyl)methanone] were, in that order, 2.4 ± 0.01 µM and 250 µM (≈ 100 µg/mL).
On the same counts, the results for `O=C(NCCNS(=O)(=O)c1cccc2cnccc12)c1cc([N+](=O)[O-])cc([N+](=O)[O-])c1` [Compound 21, N-{2-[(isoquinoline-5-sulfonyl)amino]ethyl}-3,5-dinitrobenzamide] are 0.3 ± 0.02 µM and 15.6 µM (≈ 6.95 µg/mL).
On to `O=C(C1CCCCCC1)N1CCN(S(=O)(=O)c2cccc3cnccc23)CC1` [Compound 14, Cycloheptyl[4-(isoquinoline-5-sulfonyl)piperazin-1-yl]methanone], for which, at Mtb IMPDH, the half-inhibitory concentration (IC50) came to 0.83 ± 0.04 µM. Moreover, the MIC90 in assay [1] (setting [2]) came out at 31.2 µM (≈ 12.5 µg/mL).
On the same counts, the results for `O=C(NCc1ccccc1)N1CCN(S(=O)(=O)c2cccc3cnccc23)CC1` [Compound 46, N-benzyl-4-(isoquinolin-5-ylsulfonyl)piperazine-1-carboxamide] are 0.35 ± 0.03 µM and 3.1 µM (≈ 1.27 µg/mL).
The like results for `O=C(NC1CCN(S(=O)(=O)c2cccc3cnccc23)CC1)C1CCCCC1` [Compound 4, N-[1-(isoquinoline-5-sulfonyl)piperidin-4-yl]cyclohexanecarboxamide] were, in that order, 9.7 ± 0.3 µM and greater than 100 µM.
At Mtb IMPDH, `O=C(C1CCCCC1)N1CCN(S(=O)(=O)c2ccc3ccccc3c2)CC1` [Compound 8, Cyclohexyl[4-(naphthalene-2-sulfonyl)piperazin-1-yl]methanone] came in with an IC50 of 1.6 ± 0.1 µM. For the same compound, the MIC90 in assay [1] (setting [2]) was greater than 100 µM.
The like results for `O=C(C1CCCCC1)N1CCN(S(=O)(=O)c2cccc3cnccc23)CC1` [Compound 1, Cyclohexyl[4-(isoquinoline-5-sulfonyl)piperazin-1-yl]methanone] were, in that order, 0.1 ± 0.01 µM and 2 µM (≈ 0.775 µg/mL).
In turn, `O=C(NCCNS(=O)(=O)c1cccc2cnccc12)C1CCCCC1` [Compound 2, N-{2-[(isoquinoline-5-sulfonyl)amino]ethyl}cyclohexanecarboxamide] gave a 50% inhibitory concentration (IC50) on Mtb IMPDH of 0.5 ± 0.02 µM. The MIC90 in assay [1] (setting [3]) came out at 50 µM (≈ 18.1 µg/mL).
The compound `Cc1cccc(Cl)c1NC(=O)N1CCN(S(=O)(=O)c2cccc3cnccc23)CC1` [Compound 40, N-(2-chloro-6-methylphenyl)-4-(isoquinolin-5-ylsulfonyl)piperazine-1-carboxamide] returned an IC50 on Mtb IMPDH of 3.4 ± 0.1 µM. Moreover, in assay [1] (setting [2]), the MIC90 stood at 250 µM (≈ 111 µg/mL).
Turning to `CC(C)(C)C(=O)N1CCN(S(=O)(=O)c2cccc3cnccc23)CC1` [Compound 11, 1-[4-(isoquinoline-5-sulfonyl)piperazin-1-yl]-2,2-dimethylpropan-1-one], the IC50 at Mtb IMPDH is 2.8 ± 0.2 µM. Moreover, the MIC90 in assay [1] (setting [2]) worked out at 100 µM (≈ 36.1 µg/mL).
On the same counts, the results for `O=C(Cc1cccc(O)c1)N1CCN(S(=O)(=O)c2cccc3cnccc23)CC1` [Compound 25, 2-(3-hydroxyphenyl)-1-[4-(isoquinoline-5-sulfonyl)piperazin-1-yl]ethan-1-one] are 4 ± 0.2 µM and 125 µM (≈ 51.4 µg/mL).
In turn, `O=C(Nc1ccc2c(c1)OCO2)N1CCN(S(=O)(=O)c2cccc3cnccc23)CC1` [Compound 41, N-(benzo[d][1,3]dioxol-5-yl)-4-(isoquinolin-5-ylsulfonyl)piperazine-1-carboxamide] gave an IC50 against Mtb IMPDH of 0.08 ± 0.005 µM. Further, the MIC90 in assay [1] (setting [2]) was found to be 6.3 µM (≈ 2.78 µg/mL).
